Laboratory results: ChEMBL document CHEMBL1201862, “PubChem BioAssay data set” (2004)
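Protocol summary: plate cells (96-well), add compound at 5 concentrations, incubate 48 h, interpolate endpoints linearly. GI50: concentration for 50% inhibition of growth.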 Calls of active or inactive are those of the source. No stated cut-off is given here; in the data, active = GI50 up to about 1.1 µM and inactive = higher.

Columns and labels:
Assay in all cases: NCI-60 cell line screen, 48 h
786-0 = test system: 786-0
A498 = test system: A498
A549 = test system: A549
ACHN = test system: ACHN
CAKI-1 = test system: CAKI-1
CCRF-CEM = test system: CCRF-CEM
COLO 205 = test system: COLO 205
DLD-1 = test system: DLD-1
DMS-114 = test system: DMS-114
DMS-273 = test system: DMS-273
EKVX = test system: EKVX
HCC 2998 = test system: HCC 2998
HCT-116 = test system: HCT-116
HCT-15 = test system: HCT-15
HL-60 = test system: HL-60
HOP-18 = test system: HOP-18
HOP-62 = test system: HOP-62
HOP-92 = test system: HOP-92
HT-29 = test system: HT-29
IGROV-1 = test system: IGROV-1
K562 = test system: K562
KM-20L2 = test system: KM-20L2
KM12 = test system: KM12
LOX IMVI = test system: LOX IMVI
LXFL 529 = test system: LXFL 529
M14 = test system: M14
M19-MEL = test system: M19-MEL
Malme-3M = test system: Malme-3M
NCI-H226 = test system: NCI-H226
NCI-H23 = test system: NCI-H23
NCI-H460 = test system: NCI-H460
NCI-H522 = test system: NCI-H522
OVCAR-3 = test system: OVCAR-3
OVCAR-4 = test system: OVCAR-4
OVCAR-5 = test system: OVCAR-5
OVCAR-8 = test system: OVCAR-8
RPMI-8226 = test system: RPMI-8226
RXF 393 = test system: RXF 393
SF-268 = test system: SF-268
SF-295 = test system: SF-295
SF-539 = test system: SF-539
SK-MEL-28 = test system: SK-MEL-28
SK-MEL-2 = test system: SK-MEL-2
SK-MEL-5 = test system: SK-MEL-5
SK-OV-3 = test system: SK-OV-3
SN12C = test system: SN12C
SNB-19 = test system: SNB-19
SNB-75 = test system: SNB-75
SNB-78 = test system: SNB-78
SR = test system: SR
SW-620 = test system: SW-620
TK-10 = test system: TK-10
U-251 = test system: U-251
UACC-257 = test system: UACC-257
UACC-62 = test system: UACC-62
UO-31 = test system: UO-31
XF498 = test system: XF498
MOLT-4 = test system: MOLT-4

COc1ccc(/C(=N\NC(=S)NN)C(c2ccc(OC)cc2)C2C(=O)Oc3ccccc32)cc1 (stereo not drawn)
GI50 (786-0): > 10 µM (inactive) | GI50 (A498): > 10 µM (inactive) | GI50 (A549): > 10 µM (inactive) | GI50 (ACHN): > 10 µM (inactive) | GI50 (CAKI-1): > 10 µM (inactive) | GI50 (CCRF-CEM): 64.9 µM (inactive) | GI50 (COLO 205): > 10 µM (inactive) | GI50 (DLD-1): > 10 µM (inactive) | GI50 (DMS-114): 14.8 µM (inactive) | GI50 (DMS-273): > 10 µM (inactive) | GI50 (EKVX): > 10 µM (inactive) | GI50 (HCC 2998): 9.31 µM (inactive) | GI50 (HCT-116): > 10 µM (inactive) | GI50 (HCT-15): > 10 µM | GI50 (HL-60): > 10 µM (inactive) | GI50 (HOP-18): 7.18 µM (inactive) | GI50 (HOP-62): > 10 µM (inactive) | GI50 (HOP-92): > 10 µM (inactive) | GI50 (HT-29): > 10 µM (inactive) | GI50 (IGROV-1): > 10 µM (inactive) | GI50 (K562): > 10 µM (inactive) | GI50 (KM-20L2): > 10 µM (inactive) | GI50 (KM12): > 10 µM (inactive) | GI50 (LOX IMVI): > 10 µM (inactive) | GI50 (LXFL 529): 72.4 µM (inactive) | GI50 (M14): > 10 µM (inactive) | GI50 (M19-MEL): > 10 µM (inactive) | GI50 (Malme-3M): > 10 µM (inactive) | GI50 (NCI-H226): > 10 µM (inactive) | GI50 (NCI-H23): > 10 µM (inactive) | GI50 (NCI-H460): > 10 µM (inactive) | GI50 (NCI-H522): 65.5 µM (inactive) | GI50 (OVCAR-3): > 10 µM (inactive) | GI50 (OVCAR-4): > 10 µM (inactive) | GI50 (OVCAR-5): > 10 µM (inactive) | GI50 (OVCAR-8): > 10 µM (inactive) | GI50 (RPMI-8226): > 10 µM (inactive) | GI50 (RXF 393): > 10 µM (inactive) | GI50 (SF-268): > 10 µM (inactive) | GI50 (SF-295): > 10 µM (inactive) | GI50 (SF-539): > 10 µM (inactive) | GI50 (SK-MEL-28): 56.2 µM (inactive) | GI50 (SK-MEL-2): > 10 µM (inactive) | GI50 (SK-MEL-5): > 10 µM (inactive) | GI50 (SK-OV-3): > 10 µM (inactive) | GI50 (SN12C): > 10 µM (inactive) | GI50 (SNB-19): > 10 µM (inactive) | GI50 (SNB-75): > 10 µM (inactive) | GI50 (SNB-78): > 10 µM (inactive) | GI50 (SR): 80.7 µM (inactive) | GI50 (SW-620): > 10 µM (inactive) | GI50 (TK-10): > 10 µM (inactive) | GI50 (U-251): > 10 µM (inactive) | GI50 (UACC-257): > 10 µM (inactive) | GI50 (UACC-62): > 10 µM (inactive) | GI50 (UO-31): > 10 µM (inactive) | GI50 (XF498): > 10 µM (inactive)

CCCCCCCCCCCCCCCCCCOCC1(COP(=O)([O-])OCC[N+](C)(C)C)CCCO1 (stereo not drawn)
GI50 (786-0): 3.73 µM (inactive) | GI50 (A498): 3.46 µM (inactive) | GI50 (A549): 7.6 µM (inactive) | GI50 (ACHN): 6.37 µM (inactive) | GI50 (CCRF-CEM): 2.89 µM (inactive) | GI50 (COLO 205): 1.87 µM (inactive) | GI50 (DLD-1): 3.65 µM (inactive) | GI50 (DMS-114): 5.16 µM (inactive) | GI50 (DMS-273): 1.75 µM (inactive) | GI50 (HCC 2998): 1.89 µM (inactive) | GI50 (HCT-116): 10.1 µM (inactive) | GI50 (HL-60): 2.18 µM (inactive) | GI50 (HOP-18): 2.82 µM (inactive) | GI50 (HOP-62): 2.99 µM (inactive) | GI50 (HOP-92): 3.27 µM (inactive) | GI50 (HT-29): 4.41 µM (inactive) | GI50 (IGROV-1): 2.49 µM (inactive) | GI50 (K562): 16.4 µM (inactive) | GI50 (KM-20L2): 3.26 µM (inactive) | GI50 (KM12): 1.39 µM (inactive) | GI50 (LOX IMVI): 6.43 µM (inactive) | GI50 (LXFL 529): 4.92 µM (inactive) | GI50 (M14): 3.14 µM (inactive) | GI50 (M19-MEL): 2.99 µM (inactive) | GI50 (MOLT-4): 2.2 µM (inactive) | GI50 (Malme-3M): 13.3 µM (inactive) | GI50 (NCI-H226): 5.01 µM (inactive) | GI50 (NCI-H23): 16.8 µM (inactive) | GI50 (NCI-H460): 1.57 µM (inactive) | GI50 (NCI-H522): 1.96 µM (inactive) | GI50 (OVCAR-3): 4.22 µM (inactive) | GI50 (OVCAR-4): 2.83 µM (inactive) | GI50 (OVCAR-5): 12.4 µM (inactive) | GI50 (OVCAR-8): 11.2 µM (inactive) | GI50 (RPMI-8226): 2.79 µM (inactive) | GI50 (RXF 393): 0.393 µM (active) | GI50 (SF-268): 5.87 µM (inactive) | GI50 (SF-295): 2.34 µM (inactive) | GI50 (SF-539): 15.8 µM (inactive) | GI50 (SK-MEL-28): 18.2 µM (inactive) | GI50 (SK-MEL-2): 10.9 µM (inactive) | GI50 (SK-MEL-5): 14.4 µM (inactive) | GI50 (SK-OV-3): 14.4 µM (inactive) | GI50 (SN12C): 2.2 µM (inactive) | GI50 (SNB-19): 3.7 µM (inactive) | GI50 (SNB-75): 5.56 µM (inactive) | GI50 (SNB-78): 8.17 µM (inactive) | GI50 (TK-10): 1.6 µM (inactive) | GI50 (U-251): 2.33 µM (inactive) | GI50 (UACC-257): 13.9 µM (inactive) | GI50 (UACC-62): 8.75 µM (inactive) | GI50 (UO-31): 10.2 µM (inactive) | GI50 (XF498): 7.64 µM (inactive)

C[N+](C)(C)CCC(=O)CC[N+](C)(C)C
GI50 (786-0): 18.9 µM (inactive) | GI50 (A498): 70.5 µM (inactive) | GI50 (A549): > 100 µM (inactive) | GI50 (ACHN): 17 µM (inactive) | GI50 (CAKI-1): 15.7 µM (inactive) | GI50 (CCRF-CEM): 2.49 µM (inactive) | GI50 (COLO 205): 16.4 µM (inactive) | GI50 (DLD-1): 16.2 µM (inactive) | GI50 (DMS-114): 20.8 µM (inactive) | GI50 (DMS-273): 25.6 µM (inactive) | GI50 (EKVX): 55.3 µM (inactive) | GI50 (HCC 2998): 16.2 µM (inactive) | GI50 (HCT-116): 18.4 µM (inactive) | GI50 (HCT-15): 19.2 µM | GI50 (HL-60): 4.09 µM (inactive) | GI50 (HOP-18): 17.1 µM (inactive) | GI50 (HOP-62): > 100 µM (inactive) | GI50 (HT-29): 13.5 µM (inactive) | GI50 (IGROV-1): 87.3 µM (inactive) | GI50 (K562): 6.68 µM (inactive) | GI50 (KM-20L2): 25.5 µM (inactive) | GI50 (KM12): 20 µM (inactive) | GI50 (LXFL 529): 16.1 µM (inactive) | GI50 (M14): 18.3 µM (inactive) | GI50 (M19-MEL): 23.5 µM (inactive) | GI50 (MOLT-4): 4.14 µM (inactive) | GI50 (Malme-3M): 19.7 µM (inactive) | GI50 (NCI-H23): 24.5 µM (inactive) | GI50 (NCI-H460): 28.2 µM (inactive) | GI50 (NCI-H522): 15.4 µM (inactive) | GI50 (OVCAR-3): 18.6 µM (inactive) | GI50 (OVCAR-4): 17.7 µM (inactive) | GI50 (OVCAR-8): 19.8 µM (inactive) | GI50 (RPMI-8226): 4.68 µM (inactive) | GI50 (RXF 393): 21.3 µM (inactive) | GI50 (SF-268): 22.1 µM (inactive) | GI50 (SF-295): 18.7 µM (inactive) | GI50 (SF-539): 19.8 µM (inactive) | GI50 (SK-MEL-28): 21.6 µM (inactive) | GI50 (SK-MEL-2): 21.5 µM (inactive) | GI50 (SK-MEL-5): 35.3 µM (inactive) | GI50 (SK-OV-3): > 100 µM (inactive) | GI50 (SN12C): > 10 µM (inactive) | GI50 (SNB-19): > 100 µM (inactive) | GI50 (SNB-75): 19.9 µM (inactive) | GI50 (SNB-78): 22.3 µM (inactive) | GI50 (SW-620): 16.1 µM (inactive) | GI50 (TK-10): 17 µM (inactive) | GI50 (U-251): > 100 µM (inactive) | GI50 (UACC-257): 17.6 µM (inactive) | GI50 (UACC-62): 21.5 µM (inactive) | GI50 (UO-31): 92 µM (inactive) | GI50 (XF498): 21.2 µM (inactive)
